# Data reported in PMC8845285, “Serotoninergic receptor ligands improve Tamoxifen effectiveness on breast cancer cells” (BMC Cancer, 2022).
# Legend:
# [1] = system: Tamoxifen-cultured MCF7 cells; test: Tamoxifen-cultured MCF7 cell viability, sulforhodamine B assay; format: cell-based, human; details: E2 100 nM, 72 h; for further reduction of viability elicited by Tamoxifen in presence of SER: Tamoxifen 5 μM, Tamoxifen-cultured MCF7
# Description: (§1) Cells were fixed with 50% trichloroacetic acid for at least 2 h at 4 °C, washed with distilled and de-ionized water, air-dryed and stained 30 min with 0.4% sulforhodamine B in 1% acetic acid. Unbound dye was removed and 10 mM tris-HCl solution (pH 7.5) was added to dissolve the protein-bound dye. Cell survival was assessed by optical density determination at 510 nm using a microplate reader.
# To further investigate the effect of SER79 and SER68 on Tamoxifen responsiveness and CTGF expression in MCF7 cells, we obtained - by a continuous treatment of 10 days with 1 μM Tamoxifen – a cellular model less sensitive to the drug (Tamoxifen-cultured MCF7). We observed that 20 μM SER79, 20 μM and 40 μM SER68, while not 5 μM SER79, reduced viability of Tamoxifen-cultured MCF7 cells by about 40% (adjp<0.01; Fig. 8a). […] However, in the presence of 20 μM SER79, 20 μM and 40 μM SER68, Tamoxifen elicited a further 40% reduction of viability, similar to that achieved in Tamoxifen-responsive MCF7 cells (adjp<0.01; Fig. 8b).
# Fig. 8 Effect of SER79 and SER68 on Tamoxifen-cultured MCF7 cells. MCF7 cells were cultured in presence of Tamoxifen (1 μM) for 10 days. Estrogen-starved MCF7 and Tamoxifen-cultured MCF7 cells (48 h) were (a-c) treated with SER79 (20 μM, 5 μM) or SER68 (40 μ, 20 μM), (b) treated with Tamoxifen (5 μM) in presence of SER79 (20 μM, 5 μM) or SER68 (40 μM, 20 μM). All treatments were carried out in presence of E2 (100 nM) for 72 h. As positive control, the cells were treated with (a-c) E2 alone or (b) E2 in absence or in presence of SER (as indicated, dotted line). a,b Cell viability was assessed by sulforhodamine B assay (see Methods). The results were reported as percentage of viable cells compared to positive control, considered as maximum viability (100%). c mRNA levels of CTGF were determined by qPCR (see Methods and Table 1). Data were normalized on Ribosomal Protein S23 (Rps23) gene as internal standard and reported as CTGF mRNA levels in Tamoxifen-cultured MCF7 relative to those in MCF7 cells (dotted line). a-c Graphs represent the mean ± SD of at least three independent triplicate experiments. * denotes statistically significant values compared with (a,b) positive control (*adjp<0.05, ** adjp<0.01) or (c) MCF7 cells (*pval<0.05); # denotes statistically significant values compared with (b) cells treated with Tamoxifen in absence of SER or (c) untreated Tamoxifen-cultured MCF7 cells (#pval<0.01, ##pval<0.0001)
# [2] = system: MCF7 cells; test: MCF7 responsiveness to Tamoxifen in presence of SER, sulforhodamine B assay; format: cell-based, human; details: Tamoxifen 5 μM, E2 100 nM, 72 h, estrogen-starved MCF7
# Description: MCF7 (ER^+, PR^+, HER2^−), SKBR3 (ER^−, PR^+, HER2^+) and MDA-MB231 (ER^−, PR^−, HER2^−) human BC cells and MCF10A non-cancer breast epithelial cells were available in our laboratory. MCF7, SKBR3 and MDA-MB231 cells were cultured in DMEM, supplemented with 10% FBS, 2 mM glutamine, 100 units/ml penicillin and 100 units/ml streptomycin. MCF10A cells were cultured in MEBM, supplemented with 0.4% BPE, 0.1% hEGF, 0.1%, Insulin, 0.1% Hydrocortisone and 0.1% GA-1000. […] Treatment with SER were carried out in culture conditions. Treatment with Tamoxifen and/or SER were carried out upon 48 h estrogen starvation in phenol-red free medium supplemented with 10% Charcoal Stripped (C/S) FBS, 2 mM glutamine, 100 units/ml penicillin and 100 units/ml streptomycin.
# as §1
# After 72 h, cell cycle was assessed by Propidium Iodide staining (see Methods). […] As positive control, the cells were treated with E2 and SER alone (without Tamoxifen, dotted line). After 72 h, cell viability was assessed by sulforhodamine B assay (see Methods). […] After 72 h, mRNA levels of CTGF were determined by qPCR (see Methods and Table 1). Data were normalized on Ribosomal Protein S23 (Rps23) gene as internal standard and were reported as CTGF mRNA levels in MCF7 treated with SER relative to those in untreated cells (dotted line). a-c Data represent the mean ± SD of at least three independent triplicate experiments. * denotes statistically significant values compared with (a) percentage of untreated cells in G0/G1, S and G2/M cell cycle phase (*pval<0.05,**pval<0.01), (b) positive control (*adjp<0.05,**adjp <0.01,***adjp<0.001), (c) untreated cells (pval<0.05); # denotes statistically significant values compared with cells treated with Tamoxifen in absence of SER (#pval<0.05)
# Fig. 7 Effect of low doses of SER79 and SER68 on MCF7 and MCF10A cells. a Estrogen-starved MCF7 cells (48 h) were treated with Tamoxifen (5 μM) in presence of E2 (100nM) and SER79 (5 μM) or SER68 (20 μM, 5 μM). As positive control, the cells were treated with E2 and SER alone (without Tamoxifen, dotted line). After 72 h, cell viability was assessed by sulforhodamine B assay (see Methods). […] After 72 h, mRNA levels of CTGF were determined by qPCR (see Methods and Table 1). Data were normalized on Ribosomal Protein S23 (Rps23) gene as internal standard. Bars represent CTGF mRNA levels in MCF7 treated with SER relative to those in untreated cells (dotted line). c MCF10A non-cancer breast epithelial cells were treated with SER79 (5 μM) or SER68 (20 μM). After 72 h, cell viability was assessed by sulforhodamine B assay (see Methods).
SMILES,reduction of viability of Tamoxifen-cultured MCF7 cells ([1]; SER 20 μM alone),further reduction of viability elicited by Tamoxifen in presence of SER ([1]; SER 20 μM) [%],reduction of viability of Tamoxifen-cultured MCF7 cells ([1]; SER 40 μM alone),further reduction of viability elicited by Tamoxifen in presence of SER ([1]; SER 40 μM) [%],further decrease of cell viability compared with Tamoxifen alone ([2]; SER 5 μM),further decrease of cell viability compared with Tamoxifen alone ([2]; SER 20 μM),further decrease of cell viability compared with Tamoxifen alone ([2]; SER at IC50 dose),further reduction of viability elicited by Tamoxifen in presence of SER ([1]; SER 5 μM)
O=C1C2C3C=CC(C3)C2C(=O)N1OCCN1CCN(c2ccc(Cl)c(Cl)c2)CC1 (stereo not drawn) [SER68],about 40%,40,about 40%,40,No further effect,≈ 20%,≈ 30%,
N#CN=C(NCCCN1CCN(C(c2ccc(F)cc2)c2ccc(F)cc2)CC1)c1ccccn1 [SER79],about 40%,40,,,≈ 15%,,≈ 15%,No Tamoxifen effect was observed
